The values below come from patent US9145351B2, “Azole derivatives, methods for producing the same, intermediate thereof, agro-horticultural agents” (KUREHA CORPORATION, priority 2009, dated 2015).

The term inhibition denotes the drop in the measured response relative to a control, in per cent.

Format in all cases: cell-based
One assay relates to Phaeosphaeria nodorum. The assay is described as follows: Plate medium fungicidal assay, wheat Septoria nodorum blotch P.n (Experimental Example 5). The note with it: for inhibition at 5 µg/mL / inhibition at 50 µg/mL: Parastagonospora nodorum, read-out: growth inhibition grade P.n. In short, it runs like this: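 Compound in DMSO mixed into PDA plate medium at 50 mg/L and 5 mg/L; 4 mm mycelial plug of pre-cultured fungus inoculated onto plate. Colony diameter compared with untreated plate, % mycelial growth inhibition = 100(dc−dt)/dc, scored in 5 grades.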

Assay [1] concerns Pseudocercoporella herpotrichoides. Description: Plate medium fungicidal assay, wheat eye spot P.h (Experimental Example 5). The note with it: for inhibition at 5 µg/mL / inhibition at 50 µg/mL: read-out: growth inhibition grade P.h. In short, it runs like this: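 Compound in DMSO mixed into PDA agar for plates at 50 mg/L and 5 mg/L, inoculated with a 4 mm mycelial plug of Pseudocercosporella herpotrichoides. Colony diameter compared with untreated plates: % mycelial growth inhibition = 100(dc−dt)/dc, scored on a 5-grade scale.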

For a further assay, the system named is Pyricularia oryzae. The assay is described as follows: microbe, parasite or virus in culture. The note with it: for inhibition at 5 µg/mL / inhibition at 50 µg/mL: Pyricularia oryzae, read-out: growth inhibition grade P.o.
For the next assay, the system named is Ustilago nuda. The assay is described as follows: Plate medium fungicidal assay, barley loose smut U.n (Experimental Example 5). Conditions: for inhibition at 5 µg/mL / inhibition at 50 µg/mL: Ustilago nuda, read-out: growth inhibition grade U.n. The method in brief:
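Compounds in DMSO were mixed into molten PDA to give plates at 50 mg/L and 5 mg/L, then inoculated with a 4 mm mycelial plug. Colony diameter was compared with untreated plates as % inhibition = 100(dc−dt)/dc, scored on a 5-grade scale.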

The subject of another assay is Fusarium oxysporum. Description: Plate medium fungicidal assay, cucumber fusarium wilt F.c (Experimental Example 5). Conditions: for inhibition at 5 µg/mL / inhibition at 50 µg/mL: Fusarium oxysporum, read-out: growth inhibition grade F.c. In short, it runs like this: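 Compound in DMSO mixed into PDA agar to give plates at 50 mg/L and 5 mg/L, then inoculated with 4 mm mycelial plug. Colony diameter compared with untreated plate as % mycelial growth inhibition, R=100(dc−dt)/dc, then scored on a 5-grade scale.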

The next assay concerns Sclerotinia sclerotiorum. The assay is described as follows: Plate medium fungicidal assay, Sclerotinia rot S.s (Experimental Example 5). The note with it: for inhibition at 5 µg/mL / inhibition at 50 µg/mL: Sclerotinia sclerotiorum, read-out: growth inhibition grade S.s. In short, it runs like this: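 A 4 mm mycelial plug was placed on PDA plates containing compound at 50 mg/L and 5 mg/L, added from DMSO solution. Colony diameters were compared with untreated plates, % mycelial growth inhibition was R=100(dc−dt)/dc, and scores fell into 5 grades.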

A further assay relates to Fusarium graminearum. Description: microbe, parasite or virus in culture. Conditions: for inhibition at 5 µg/mL / inhibition at 50 µg/mL: Fusarium graminearum, read-out: growth inhibition grade F.g.
Where [2] appears, read: plate medium containing compound at 5 mg/L.
[3] abbreviates: plate medium containing compound at 50 mg/L.

`O[C@]1(Cn2cncn2)[C@@H](Cc2ccc(Cl)cc2)CC[C@@H]1C(F)(F)F` (racemic) [Compound I-365, (1RS,2SR,5RS)-5-(4-chlorobenzyl)-2-trifluoromethyl-1-(1H-1,2,4-triazol-1-ylmethyl)cyclopentanol]: the inhibition at 5 µg/mL was 40 to 60% in the assay on Phaeosphaeria nodorum (plate medium, 5 mg/L); 20 to 40% in assay [1] (plate medium, 5 mg/L); under 20% in the assay on Pyricularia oryzae; 20 to 40% in the assay with Ustilago nuda (plate medium, 5 mg/L); 20 to 40% with Fusarium oxysporum (plate medium, 5 mg/L); 20 to 40% in the assay on Sclerotinia sclerotiorum (plate medium, 5 mg/L). Further, the inhibition at 5 µg/mL in the assay with Fusarium graminearum was in the range of 20 to 40%. Also, the inhibition at 50 µg/mL in the assay with Phaeosphaeria nodorum (plate medium, 50 mg/L) was over 80%; in assay [1] (plate medium, 50 mg/L), over 80%; with Pyricularia oryzae, over 80%; with Ustilago nuda (plate medium, 50 mg/L), over 80%; with Fusarium oxysporum (plate medium, 50 mg/L), over 80%; in the assay on Sclerotinia sclerotiorum (plate medium, 50 mg/L), over 80%. The inhibition at 50 µg/mL with Fusarium graminearum is over 80%.
Regarding `C[C@@]1(CCl)CC[C@H](Cc2ccc(Cl)cc2)[C@]1(O)Cn1cncn1` (racemic) [Compound I-401, (1RS,2RS,5RS)-5-(4-chlorobenzyl)-2-chloromethyl-2-methyl-1-[1,2,4]triazol-1-ylmethylcyclopentanol], the inhibition at 5 µg/mL in the assay on Phaeosphaeria nodorum (plate medium, 5 mg/L) is over 80%; in assay [1] (plate medium, 5 mg/L), over 80%; with Pyricularia oryzae, over 80%; in the assay with Ustilago nuda (plate medium, 5 mg/L), 60 to 80%; in the assay on Fusarium oxysporum (plate medium, 5 mg/L) it was over 80%; with Sclerotinia sclerotiorum (plate medium, 5 mg/L), over 80%. Moreover, the inhibition at 5 µg/mL with Fusarium graminearum was over 80%. In addition, the inhibition at 50 µg/mL in the assay with Phaeosphaeria nodorum (plate medium, 50 mg/L) was over 80%; in assay [1] (plate medium, 50 mg/L), over 80%; with Pyricularia oryzae it was over 80%; with Ustilago nuda (plate medium, 50 mg/L), over 80%; with Fusarium oxysporum (plate medium, 50 mg/L), over 80%; with Sclerotinia sclerotiorum (plate medium, 50 mg/L), over 80%. The inhibition at 50 µg/mL in the assay with Fusarium graminearum is over 80%.
Regarding `C[C@]1(CBr)CC[C@@H](Cc2ccc(F)cc2)[C@]1(O)Cn1cncn1` (racemic) [Compound I-601, (1RS,2SR,5SR)-2-bromomethyl-5-(4-fluorobenzyl)-2-methyl-1-(1H-1,2,4-triazol-1-ylmethyl)cyclopentanol], the inhibition at 5 µg/mL in the assay with Phaeosphaeria nodorum (plate medium, 5 mg/L) is 60 to 80%; in assay [1] (plate medium, 5 mg/L), 60 to 80%; in the assay on Pyricularia oryzae it was over 80%; with Ustilago nuda (plate medium, 5 mg/L), 40 to 60%; with Fusarium oxysporum (plate medium, 5 mg/L), over 80%; in the assay with Sclerotinia sclerotiorum (plate medium, 5 mg/L), over 80%. Also, the inhibition at 5 µg/mL in the assay on Fusarium graminearum was over 80%. The inhibition at 50 µg/mL in the assay on Phaeosphaeria nodorum (plate medium, 50 mg/L) is over 80%; in assay [1] (plate medium, 50 mg/L), over 80%; in the assay on Pyricularia oryzae, over 80%; in the assay with Ustilago nuda (plate medium, 50 mg/L), over 80%; with Fusarium oxysporum (plate medium, 50 mg/L) it was over 80%; in the assay with Sclerotinia sclerotiorum (plate medium, 50 mg/L) it was over 80%. The inhibition at 50 µg/mL in the assay with Fusarium graminearum was over 80%.
In the case of `C[C@]1(CBr)CC[C@@H](Cc2ccccc2)[C@]1(O)Cn1cncn1` (racemic) [Compound I-602, (1RS,2SR,5SR)-2-bromomethyl-5-benzyl-2-methyl-1-(1H-1,2,4-triazol-1-ylmethyl)cyclopentanol], the inhibition at 5 µg/mL in the assay with Phaeosphaeria nodorum (plate medium, 5 mg/L) was 40 to 60%; in assay [1] (plate medium, 5 mg/L), 40 to 60%; in the assay with Pyricularia oryzae, over 80%; in the assay on Ustilago nuda (plate medium, 5 mg/L), 60 to 80%; in the assay with Fusarium oxysporum (plate medium, 5 mg/L) it was over 80%; in the assay on Sclerotinia sclerotiorum (plate medium, 5 mg/L) it was over 80%. Moreover, in the assay on Fusarium graminearum, the inhibition at 5 µg/mL was over 80%. The inhibition at 50 µg/mL with Phaeosphaeria nodorum (plate medium, 50 mg/L) was over 80%; in assay [1] (plate medium, 50 mg/L) it was over 80%; with Pyricularia oryzae it was over 80%; in the assay with Ustilago nuda (plate medium, 50 mg/L), over 80%; in the assay with Fusarium oxysporum (plate medium, 50 mg/L), over 80%; with Sclerotinia sclerotiorum (plate medium, 50 mg/L) it was over 80%. In addition, in the assay on Fusarium graminearum, the inhibition at 50 µg/mL was over 80%.
For the molecule `CC1(C)CCC(Cc2ccc(Cl)cc2)C1(O)Cn1ncnc1S` (racemic) [compound (2)], the “Growth inhibition grade, P.n” value in the assay on Phaeosphaeria nodorum (plate medium, 5 mg/L) is listed as 3 (% Mycelial growth inhibition of less than 60 to 40% or higher); in the assay on Phaeosphaeria nodorum (plate medium, 50 mg/L) it was 4 (% Mycerial growth inhibition of less than 80 to 60% or higher). The “Growth inhibition grade, P.h” value is 2 (% Mycerial growth inhibition of less than 40 to 20% or higher) in assay [1] (plate medium, 5 mg/L) and 4 (% Mycerial growth inhibition of less than 80 to 60% or higher) in assay [1] (plate medium, 50 mg/L). Further, the “Growth inhibition grade, P.o” value was 4 (% Mycerial growth inhibition of less than 80 to 60% or higher) in the assay on Pyricularia oryzae (plate medium, 5 mg/L) and 4 (% Mycerial growth inhibition of less than 80 to 60% or higher) in the assay with Pyricularia oryzae (plate medium, 50 mg/L). The “Growth inhibition grade, U.n” value in the assay on Ustilago nuda (plate medium, 5 mg/L) is 1 (% Mycerial growth inhibition of less than 20%); in the assay with Ustilago nuda (plate medium, 50 mg/L), 3 (% Mycelial growth inhibition of less than 60 to 40% or higher). In addition, the “Growth inhibition grade, F.c” value in the assay on Fusarium oxysporum (plate medium, 5 mg/L) is given as 3 (% Mycelial growth inhibition of less than 60 to 40% or higher); in the assay with Fusarium oxysporum (plate medium, 50 mg/L) it was 4 (% Mycerial growth inhibition of less than 80 to 60% or higher). The “Growth inhibition grade, S.s” value is given as 3 (% Mycelial growth inhibition of less than 60 to 40% or higher) in the assay on Sclerotinia sclerotiorum (plate medium, 5 mg/L) and 5 (% Mycerial growth inhibition of 80% or higher) in the assay with Sclerotinia sclerotiorum (plate medium, 50 mg/L). In addition, the “Growth inhibition grade, F.g” value is given as 3 (% Mycelial growth inhibition of less than 60 to 40% or higher) in the assay with Fusarium graminearum (plate medium, 5 mg/L) and 5 (% Mycerial growth inhibition of 80% or higher) in the assay on Fusarium graminearum (plate medium, 50 mg/L).
As for `C[C@]1(CCl)CC[C@@H](Cc2ccc(OC(F)(F)F)cc2)[C@]1(O)Cn1cncn1` (relative stereo) [Compound I-79], the “Growth inhibition grade, P.n” value in the assay with Phaeosphaeria nodorum (setting [2]) and in the assay with Phaeosphaeria nodorum (setting [3]) was 5 (% Mycerial growth inhibition of 80% or higher) each time. For the same molecule, the “Growth inhibition grade, P.h” value in assay [1] (setting [2]) and in assay [1] (setting [3]) was 5 (% Mycerial growth inhibition of 80% or higher) in each case. Besides, the “Growth inhibition grade, P.o” value in the assay with Pyricularia oryzae (setting [2]) and in the assay with Pyricularia oryzae (setting [3]) was 5 (% Mycerial growth inhibition of 80% or higher) throughout. Besides, the “Growth inhibition grade, U.n” value in the assay on Ustilago nuda (setting [2]) and with Ustilago nuda (setting [3]) was 5 (% Mycerial growth inhibition of 80% or higher) throughout. Also, the “Growth inhibition grade, F.c” value with Fusarium oxysporum (setting [2]) and in the assay on Fusarium oxysporum (setting [3]) was 5 (% Mycerial growth inhibition of 80% or higher) each time. The “Growth inhibition grade, S.s” value in the assay on Sclerotinia sclerotiorum (setting [2]) and in the assay with Sclerotinia sclerotiorum (setting [3]) was 5 (% Mycerial growth inhibition of 80% or higher) throughout. Besides, the “Growth inhibition grade, F.g” value in the assay on Fusarium graminearum (setting [2]) and in the assay on Fusarium graminearum (setting [3]) was 5 (% Mycerial growth inhibition of 80% or higher) throughout.
For the molecule `Cc1ccc(C[C@@H]2CC[C@](C)(CCl)[C@@]2(O)Cn2cncn2)cc1` (relative stereo) [Compound I-80], the “Growth inhibition grade, P.n” value in the assay on Phaeosphaeria nodorum (setting [2]) and in the assay with Phaeosphaeria nodorum (setting [3]) was 5 (% Mycerial growth inhibition of 80% or higher) throughout. Moreover, the “Growth inhibition grade, P.h” value in assay [1] (setting [2]) and in assay [1] (setting [3]) was 5 (% Mycerial growth inhibition of 80% or higher) throughout. Moreover, the “Growth inhibition grade, P.o” value in the assay with Pyricularia oryzae (setting [2]) and in the assay on Pyricularia oryzae (setting [3]) was 5 (% Mycerial growth inhibition of 80% or higher) in each case. Also, the “Growth inhibition grade, U.n” value in the assay on Ustilago nuda (setting [2]) and in the assay with Ustilago nuda (setting [3]) was 5 (% Mycerial growth inhibition of 80% or higher) in each case. Further, the “Growth inhibition grade, F.c” value in the assay on Fusarium oxysporum (setting [2]) and in the assay with Fusarium oxysporum (setting [3]) was 5 (% Mycerial growth inhibition of 80% or higher) in each case. Besides, the “Growth inhibition grade, S.s” value with Sclerotinia sclerotiorum (setting [2]) and in the assay with Sclerotinia sclerotiorum (setting [3]) was 5 (% Mycerial growth inhibition of 80% or higher) throughout. For the same molecule, the “Growth inhibition grade, F.g” value in the assay on Fusarium graminearum (setting [2]) and in the assay with Fusarium graminearum (setting [3]) was 5 (% Mycerial growth inhibition of 80% or higher) in each case.
